# Biological target: T1, prostaglandin E2 type 2 (EP2) receptors (Homo sapiens, UniProt P43116)
# T1 construct: These full length receptors are used to prepare 293S cells expressing the EP1, EP2, EP3 and EP4 receptors; expressed in transfected cells; membranes
# Assay: Assay for Binding to Prostaglandin E2 Receptors (3H-prostaglandin E2 displacement, membranes of transfected 293S cells)
# Conditions: concentration displacing 50% of specifically bound 3H-prostaglandin E2, 1 hour at 25° C.
# Experimental: Membrane Preparation: All operations are performed at […]. Transfected cells expressing prostaglandin E2 type 1 receptors (EP1), type 2 (EP2), type 3 (EP3) or type 4 (EP4) receptors are harvested and suspended to 2 million cells per ml in Buffer A [50 mM Tris-HCl (pH 7.4), 10 mM MgCl2, 1 mM EDTA, 1 mM Pefabloc peptide, (Boehringer Mannheim Corp., Indianapolis, Ind.), 10 uM Phosporamidon peptide, (Sigma, St. Louis, Mo.), 1 uM pepstatin A peptide, (Sigma, St. Louis, Mo.), 10 uM elastatinal peptide, (Sigma, St. Louis, Mo.), 100 uM antipain peptide, (Sigma, St. Louis, Mo.)]. The cells are lysed by sonification with a Branson Sonifier (Model #250, Branson Ultrasonics Corporation, Danbury, Conn.) in 2 fifteen second bursts. Unlysed cells and debris are removed by centrifugation, at 100×g for 10 min. Membranes are then harvested by centrifugation at 45,000×g for 30 minutes. […] Resuspended membranes are then stored frozen at −80° C. until use.
# Binding Assay: Frozen membranes prepared as above are thawed and diluted to 1 mg protein per ml in Buffer A above. […] The membranes with bound ^3H-prostaglandin E2 are trapped by the filter, while the buffer and unbound ^3H-prostaglandin E2 pass through the filter into waste. Each sample is then washed 3 times with 3 ml of [50 mM Tris-HCl (pH 7.4), 10 mM MgCl2, 1 mM EDTA]. The filters are then dried by heating in a microwave oven.
# Typically, PCR (polymerase chain reaction) primers corresponding to the 5′ and 3′ ends of the published full length receptor are made according to the well known methods disclosed above and are used in an RT-PCR reaction using the total RNA from human kidney (for EP1), human lung (for EP2), human lung (for EP3) or human lymphocytes (for EP4) as a source. PCR products are cloned by the TA overhang method into pCR2.1 (Invitrogen, Carlsbad, Calif.) and identity of the cloned receptor is confirmed by DNA sequencing.
# Stable cell lines expressing the receptor are established following selection of transfected cells with G418.
# T1 sequence (P43116 whole entry): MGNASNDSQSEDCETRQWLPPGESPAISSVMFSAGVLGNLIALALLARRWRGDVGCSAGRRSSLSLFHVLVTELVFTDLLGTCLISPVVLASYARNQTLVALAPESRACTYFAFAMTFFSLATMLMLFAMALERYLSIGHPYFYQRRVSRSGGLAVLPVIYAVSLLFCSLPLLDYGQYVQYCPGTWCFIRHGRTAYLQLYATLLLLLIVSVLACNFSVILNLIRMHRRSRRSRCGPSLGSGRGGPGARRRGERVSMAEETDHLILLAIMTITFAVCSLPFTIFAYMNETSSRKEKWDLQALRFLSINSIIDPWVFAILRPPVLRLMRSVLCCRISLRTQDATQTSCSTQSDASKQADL
row,SMILES,IC50
1,"O=C(O)c1ccc(CCCN(CCCc2cccc(Cl)c2)S(=O)(=O)c2cccnc2)s1 [Example 4, 5-(3-((3-(3-Chloro-phenyl)-propyl)-(pyridine-3-sulfonyl)-amino)-propyl)-thiophene-2-carboxylic acid]",225 nM
2,"CN(C)c1ccc(CN(Cc2cccc(CC(=O)O)c2)S(=O)(=O)c2cccnc2)cc1 [Example 1w, (3-(((4-Dimethylamino-benzyl)-(pyridine-3-sulfonyl)-amino]-methyl)-phenyl)-acetic acid]",24 nM
3,"O=C(O)COc1cccc(CN(CCCc2cccc(Cl)c2)S(=O)(=O)c2cccnc2)c1 [Example 1ab, (3-(((3-(3-Chloro-phenyl)-propyl)-(pyridine-3-sulfonyl)-amino)-methyl)-phenoxy) acetic acid]",110 nM
4,"O=C(O)c1ccc(CCCN(CCCc2cccc(Cl)c2)C(=O)N2CCCC2)s1 [Example 8, 5-(3-((3-(3-Chloro-phenyl)-propyl)-(Pyrrolidine-1-carbonyl)-amino)-propyl)-thiophene-2-carboxylic acid]",71 nM
5,"CC(C)NC(=O)N(CCCc1cccc(Cl)c1)CCCc1ccc(C(=O)O)s1 [Example 7a, 5-(3-(1-(3-(3-Chloro-phenyl)-propyl)-3-isopropyl-ureido)-propyl)-thiophene-2-carboxylic acid]",400 nM
6,O=C(O)Cc1cccc(CN(Cc2ccc(SCCc3ccccc3)cc2)S(=O)(=O)c2cccnc2)c1 [Example 1e],760 nM
7,"O=C(O)c1ccc(CCCN(Cc2ccc(-c3nccs3)cc2)S(=O)(=O)c2cccnc2)s1 [Example 1an, 5-(3-((Pyridine-3-sulfonyl)-(4-thiazol-2-yl-benzyl)-amino)-propyl)-thiophene-2-carboxylic acid]",94 nM
8,"CC(C)Oc1ccc(CN(Cc2cccc(CC(=O)O)c2)S(=O)(=O)c2cccnc2)cc1 [Example 1i, (3-(((4-Isopropoxy-benzyl)-(pyridine-3-sulfonyl)-amino)-methyl)-phenyl)-acetic acid]",72 nM
9,"O=C(O)Cc1cccc(CN(Cc2ccc(-c3ncccn3)cc2)S(=O)(=O)c2cccnc2)c1 [Example 1t, (3-(((Pyridine-3-sulfonyl)-(4-pyrimidin-2-yl-benzyl)-amino)-methyl)-phenyl)-acetic acid]",8 nM
10,"CCCCc1ccc(CN(Cc2cccc(CC(=O)O)c2)S(=O)(=O)c2cccs2)cc1 [Example 9b, (3-(((4-Butyl-benzyl)-(thiophene-2-sulfonyl)-amino)-methyl)-phenyl)-acetic acid]",94.5 nM
11,"O=C(O)Cc1cccc(CN(Cc2ccc(-c3cncnc3)cc2)S(=O)(=O)c2cccnc2)c1 [Example 1aj, (3-(((Pyridine-3-sulfonyl)-(4-pyrimidin-5-yl-benzyl)-amino)-methyl)-phenyl)-acetic acid]",25.5 nM
12,"O=C(O)c1ccc(CCCN(CCCc2cccc(Cl)c2)S(=O)(=O)c2ccc(-n3ncc(=O)[nH]c3=O)cc2)s1 [Example 6d, 5-(3-((3-(3-Chloro-phenyl)-propyl)-(4-(3,5-dioxo-4,5-dihydro-3H-[1,2,4]triazin-2-yl)-benzenesulfonyl)-amino)-propyl)-thiophene-2-carboxylic acid]",170 nM
13,"O=C(O)Cc1cccc(CN(Cc2ccc(N3CCCC3=O)cc2)S(=O)(=O)c2cccnc2)c1 [Example 1ag, (3-(((4-(2-Oxo-Pyrrolidin-1-yl)-benzyl)-(pyridine-3-sulfonyl)-amino)-methyl)-phenyl)-acetic acid]",169 nM
14,"O=C(O)Cc1cccc(CN(CCOc2cccc(Cl)c2)S(=O)(=O)c2cccnc2)c1 [Example 2, (3-(((2-(3-Chloro-phenoxy)-ethyl)-(Pyridine-3-sulfonyl)-amino]-methyl)-phenyl)-acetic acid]",45 nM
15,"O=C(O)c1ccc(CCCN(CCCc2cccc(Cl)c2)C(=O)Cc2cccnc2)s1 [Example 5b, 5-(3-((3-(3-Chloro-phenyl)-propyl)-(Pyridin-3-yl-acetyl)-amino)-propyl)-thiophene-2-carboxylic acid]",640 nM
